Two compounds from US7452884B2, “Methods for inhibiting angiogenesis” (Fox Chase Cancer Center, priority 2001, dated 2008) can be followed below.

Like-named read-outs stand apart in the source and are kept apart here.

Data set [1] concerns SVR angiosarcoma xenografts.
Data set [2] concerns rat aortic ring explant cultures. Conditions: for inhibition of microvessel growth: day 8; for inhibition of microvessel growth relative to vehicle-treated control cultures: day 8 (peak of microvessel growth), serum-free EBM.
In data set [3] the test system is PAEC-VEGF-Matrigel implants. Conditions: 250 mg/kg/dose p.o. QD for 6 days, nude mice, p<0.05.
The test system of data set [4] is human umbilical vein endothelial cells (HUVECs). The data set is described as follows: Capillary tube formation by HUVECs on Matrigel in vitro. Conditions: for inhibition of complete capillary tube formation relative to vehicle-treated control cultures: 18 h incubation.

As for `Cc1c(-c2cnccn2)ssc1=S` [Oltipraz, 5-(2-pyrazinyl)-4-methyl-1,2-dithiol-3-thione], in data set [1] (250 mg/kg/dose p.o. QD for 10 days), the “morbidity or mortality of treated mice” value is reported as “absence of apparent morbidity or mortality”. The “inhibition of tumor growth” value in data set [1] (250 mg/kg/dose p.o. QD, as early as day 4 of dosing, p<0.005) is on record as “significant inhibition of tumor growth”. Further, the “maximum inhibition of tumor volume relative to TW:PG vehicle-treated mice” value in data set [1] (250 mg/kg/dose p.o. QD, day 10 of dosing, p<0.001) is listed as 81%. Further, the “inhibition of microvessel growth” value in data set [2] (0.4 μM) and in data set [2] (4 μM) was “not inhibitory” each time. For the same compound, the “inhibition of microvessel growth relative to vehicle-treated control cultures” value was determined as 50% in data set [2] (40 μM, p<0.05) and 95% in data set [2] (100 μM, p<0.01). The “reduction in neovascularization (hemoglobin content) relative to TW:PG vehicle-treated control mice” value in data set [3] is 42%. For the same compound, the “inhibition of complete capillary tube formation relative to vehicle-treated control cultures” value is 23% in data set [4] (4 μM); 62% in data set [4] (40 μM, p<0.05); 52% in data set [4] (100 μM, p<0.05). Moreover, in data set [4] (4, 40 and 100 μM), the “cytotoxicity to human endothelial cells in culture” value is given as “absence of cytotoxicity”.

On to `CO[C@@H]1[C@H](OC(=O)NC(=O)CCl)CC[C@]2(CO2)[C@H]1[C@@]1(C)O[C@@H]1CC=C(C)C` [TNP470], for which the “maximum reduction in SVR tumor volume relative to vehicle-treated control mice” value in data set [1] (30 mg/kg/dose s.c. Q2D×3, by day 10) is reported as 80%.
